For data set [1], the target named is T1, AXL kinase (Homo sapiens, UniProt P30530).
T1 sequence (P30530 26-894): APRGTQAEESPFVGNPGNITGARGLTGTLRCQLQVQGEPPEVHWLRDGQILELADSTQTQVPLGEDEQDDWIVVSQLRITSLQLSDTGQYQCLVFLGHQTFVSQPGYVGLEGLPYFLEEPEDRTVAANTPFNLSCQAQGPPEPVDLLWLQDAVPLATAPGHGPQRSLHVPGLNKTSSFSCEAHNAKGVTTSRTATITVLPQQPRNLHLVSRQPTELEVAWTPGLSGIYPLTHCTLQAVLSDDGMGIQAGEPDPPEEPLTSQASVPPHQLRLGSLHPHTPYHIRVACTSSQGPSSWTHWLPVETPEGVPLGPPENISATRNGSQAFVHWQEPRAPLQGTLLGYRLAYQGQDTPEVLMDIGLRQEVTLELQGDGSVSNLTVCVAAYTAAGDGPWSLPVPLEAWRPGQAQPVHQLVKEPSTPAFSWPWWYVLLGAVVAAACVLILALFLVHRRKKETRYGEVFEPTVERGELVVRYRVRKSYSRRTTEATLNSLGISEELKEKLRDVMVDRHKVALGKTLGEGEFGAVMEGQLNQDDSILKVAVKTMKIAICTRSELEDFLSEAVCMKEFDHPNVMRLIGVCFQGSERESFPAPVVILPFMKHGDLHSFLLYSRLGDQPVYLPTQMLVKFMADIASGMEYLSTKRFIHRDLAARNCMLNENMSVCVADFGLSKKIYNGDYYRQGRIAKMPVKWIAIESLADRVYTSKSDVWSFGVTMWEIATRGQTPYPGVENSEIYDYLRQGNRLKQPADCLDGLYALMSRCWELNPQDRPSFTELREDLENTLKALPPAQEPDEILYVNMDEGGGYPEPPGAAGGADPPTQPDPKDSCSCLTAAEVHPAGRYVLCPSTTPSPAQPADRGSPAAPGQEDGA
Put plainly: AXL kinase inhibition, ELISA. Format: biochemical. The conditions noted are these: for IC50: IC50 AXL kinase, ELISA, mean ± SD of two independent experiments; for inhibition at 0.1 µM: read-out: inhibition rate AXL kinase. Background: ELISA stands for enzyme-linked immunosorbent assay.

The test system of data set [2] is BaF3/TEL-AXL cells. Description: BaF3/TEL-AXL cell viability. Format: cell-based. The conditions noted are these: 48 h, read-out: IC50 Cell viability.
A short description of data set [3]: Pharmacokinetics in ICR mice. Format: in vivo. The following applies: mouse, serum.

Molecules are shown by their SMILES. Where “and” joins values, the source holds several entries; their conditions need not be identical. Equal entries are not always repeated.

A word on the IC50: it is the concentration at which inhibition is half-maximal. The compound `COc1cc2ncnc(Oc3ccc(NC(=O)c4c5n(n(-c6ccc(C)cc6)c4=O)CCCC5)cc3F)c2cc1OC` [Compound 23] had a 50% inhibitory concentration (IC50) in data set [1] of 27.3 ± 2.6 nM. The inhibition is the change of the read-out against control, counted positive when it falls. As for `COc1cc2ncnc(Oc3ccc(NC(=O)c4c5n(n(-c6ccccc6F)c4=O)CCCC5)cc3OC)c2cc1OC` [Compound 42], the inhibition at 0.1 µM in data set [1] was 28%. Regarding `COc1cc2ncnc(Oc3ccc(NC(=O)c4c5n(n(-c6ccccc6F)c4=O)CCCC5)c4ccccc34)c2cc1OC` [Compound 53], the inhibition at 0.1 µM in data set [1] worked out at 41.4%.

With `COc1cc2nccc(Oc3ccc(NC(=O)c4c5n(n(-c6ccccc6)c4=O)CCCC5)cc3F)c2cc1OC` [Compound 57], in data set [2], the half-maximal inhibitory concentration (IC50) was under 0.1 nM. `COc1cc2ncnc(Oc3ccc(NC(=O)c4c5n(n(-c6ccc(F)cc6)c4=O)CCCC5)cc3C)c2cc1OC` [Compound 39]: the inhibition at 0.1 µM in data set [1] came to 15.6%. Turning to `COc1cc2ncnc(Oc3ccc(NC(=O)c4c5n(n(-c6cc(F)ccc6F)c4=O)CCCC5)cc3)c2cc1OC` [Compound 50], in data set [2], the IC50 was 7.8 ± 0.7 nM. On to `COc1cc2ncnc(Oc3ccc(NC(=O)c4c5n(n(-c6ccc(F)cc6)c4=O)CCCC5)c4ccccc34)c2cc1OC` [Compound 54], for which the inhibition at 0.1 µM in data set [1] came to 39%. On to `COc1cc2ncnc(Oc3ccc(NC(=O)c4c5n(n(-c6ccc(F)cc6)c4=O)CCCC5)cc3F)c2cc1OC` [Compound 19], for which the IC50 in data set [2] was under 0.1 nM. In the case of `COc1cc2ncnc(Oc3ccc(NC(=O)c4c5n(n(-c6ccc(F)cc6)c4=O)CCCC5)cc3OC)c2cc1OC` [Compound 43], the inhibition at 0.1 µM in data set [1] is 19.9%.

For `COc1cc2ncnc(Oc3ccc(NC(=O)c4c5n(n(-c6ccccc6)c4=O)CCCC5)cc3C)c2cc1OC` [Compound 37], in data set [1], the inhibition at 0.1 µM worked out at 23.2%.

In data set [1], `COc1cc2ncnc(Oc3ccc(NC(=O)c4c5n(n(-c6ccc(Cl)cc6)c4=O)CCCC5)cc3F)c2cc1OC` [Compound 21] yielded an IC50 of 42.6 ± 6.2 nM.

In turn, `COc1cc2ncnc(Oc3ccc(NC(=O)c4c5n(n(-c6ccccc6F)c4=O)CCCC5)cc3Cl)c2cc1OC` [Compound 34] had an IC50 in data set [1] of 30.9 ± 1.4 nM.

Consider `COc1cc2nccc(Oc3ccc(NC(=O)c4c5n(n(-c6ccccc6)c4=O)CCCC5)cn3)c2cc1OC` [Compound 58], for which, in data set [1], the inhibition at 0.1 µM is 50.9%. For the compound `COc1cc2ncnc(Oc3ccc(NC(=O)c4c5n(n(-c6ccccc6)c4=O)CCCC5)cc3C(F)(F)F)c2cc1OC` [Compound 45], the inhibition at 0.1 µM in data set [1] came to 59.4%. For the compound `COc1cc2ncnc(Oc3ccc(NC(=O)c4c5n(n(-c6ccccc6)c4=O)CCCC5)cc3Cl)c2cc1OC` [Compound 33], the IC50 in data set [2] was 1650 ± 444 nM; in data set [1], 16.9 ± 2.5 nM.

For the compound `COc1cc2ncnc(Oc3ccc(NC(=O)c4c5n(n(-c6ccccc6F)c4=O)CCCC5)cc3F)c2cc1OC` [Compound 17], the IC50 in data set [2] is under 0.1 nM. Consider `COc1cc2ncnc(Oc3ccc(NC(=O)c4c5n(n(-c6ccccc6F)c4=O)CCCC5)cc3)c2cc1OC` [Compound 49], for which, in data set [1], the inhibition at 0.1 µM stood at 47.9%. For the compound `COc1cc2ncnc(Oc3ccc(NC(=O)c4c5n(n(-c6ccc(F)cc6F)c4=O)CCCC5)cc3F)c2cc1OC` [Compound 27], half-maximal inhibition in data set [1] (IC50) was put at 25.1 ± 1.6 nM. With `COc1cc2ncnc(Oc3ccc(NC(=O)c4c5n(n(-c6ccccc6F)c4=O)CCCC5)c(F)c3)c2cc1OC` [Compound 30], the IC50 in data set [2] was under 0.1 nM; in data set [1], 13.4 ± 0.8 nM. For the compound `COc1cc2nccc(Oc3ccc(NC(=O)c4c5n(n(-c6cc(F)ccc6Cl)c4=O)CCCC5)cc3)c2cc1OC` [Compound 61], the IC50 in data set [2] is under 0.2 nM; in data set [1], < 10 nM and 0.7 nM. For the compound `COc1cc2ncnc(Oc3ccc(NC(=O)c4c5n(n(-c6ccccc6Cl)c4=O)CCCC5)cc3F)c2cc1OC` [Compound 20], the values for the IC50 in data set [2] and in data set [1] were 7 ± 4.2 nM and 10.5 ± 0.5 nM, respectively. Turning to `O=C(Nc1ccc(Oc2ccc3nncn3n2)cc1)c1c2n(n(-c3ccccc3)c1=O)CCCC2` [Compound 12], the inhibition at 0.1 µM in data set [1] was -17.7%. `COc1cc2ncnc(Oc3ccc(NC(=O)c4c5n(n(-c6ccccc6)c4=O)CCCC5)c4ccccc34)c2cc1OC` [Compound 52]: the inhibition at 0.1 µM in data set [1] was 41%. In data set [1], `COc1cc2ncnc(Oc3ccc(NC(=O)c4c5n(n(-c6ccc(F)cc6)c4=O)CCCC5)c(F)c3)c2cc1OC` [Compound 31] gave an IC50 of 30.5 ± 4.9 nM. With `COc1cc2ncnc(Oc3ccc(NC(=O)c4c5n(n(-c6ccccc6)c4=O)CCCC5)cc3OC)c2cc1OC` [Compound 41], in data set [1], the inhibition at 0.1 µM came out at 56.4%. `COc1cc2ncnc(Oc3ccc(NC(=O)c4c5n(n(-c6cc(C)ccc6C)c4=O)CCCC5)cc3F)c2cc1OC` [Compound 25] displayed an IC50 in data set [1] of 78.4 ± 2.1 nM. Regarding `COc1cc2ncnc(Oc3ccc(NC(=O)c4c5n(n(-c6ccccc6F)c4=O)CCCC5)cc3C)c2cc1OC` [Compound 38], the inhibition at 0.1 µM in data set [1] came to 32.3%.

Consider `COc1cc2nccc(Oc3ccc(NC(=O)c4c5n(n(-c6cc(F)ccc6F)c4=O)CCCC5)cc3)c2cc1OC` [Compound 60], for which the 50% inhibitory concentration (IC50) is under 0.2 nM in data set [2]; < 10 nM and 1.2 nM in data set [1]. Turning to `COc1cc2ncnc(Oc3ccc(NC(=O)c4c5n(n(-c6cc(F)ccc6F)c4=O)CCCC5)cc3C)c2cc1OC` [Compound 40], the inhibition at 0.1 µM in data set [1] was 35.7%. `COc1nc(OC)nc(Oc2ccc(NC(=O)c3c4n(n(-c5ccccc5)c3=O)CCCC4)cc2)n1` [Compound 14]: the inhibition at 0.1 µM in data set [1] was -6%. On to `COc1cc2ncnc(Oc3ccc(NC(=O)c4c5n(n(-c6cc(F)ccc6F)c4=O)CCCC5)cc3Cl)c2cc1OC` [Compound 36], for which the IC50 came out at 3630 ± 494 nM in data set [2] and 6.6 ± 2.9 nM in data set [1]. Take `COc1cc2nccc(Oc3ccc(NC(=O)c4c5n(n(-c6ccc(F)cc6F)c4=O)CCCC5)cc3)c2cc1OC` [Compound 62]: the IC50 in data set [2] was 0.7 ± 0.3 nM; in data set [1] it was < 10 nM and 6.1 nM. The AUC(0-inf) is the area under the concentration-time curve extrapolated to infinity. A low value points to low exposure. One may read the AUC(0-t) as the area under the concentration-time curve up to a stated or last time point. Higher therefore signals more exposure. For orientation: clearance means the rate of elimination divided by the concentration. Low values mean a low capacity for elimination, high ones a high capacity for elimination. As usually defined, the half-life is the time in which the quantity being followed falls by half. The term Cmax denotes the maximum level reached in the sampled fluid or tissue. The Tmax is the time at which the peak concentration occurs. As a reminder, the bioavailability is dose-corrected exposure relative to a reference, in per cent. A high value points to much systemic uptake. For `COc1cc2ncnc(Oc3ccc(NC(=O)c4c5n(n(-c6cc(F)ccc6F)c4=O)CCCC5)cc3F)c2cc1OC` [Compound 24], in data set [3] (iv, 5 mg/kg), the AUC(0-inf) turned out to be 49100 ng·h/mL, the area under the curve AUC(0-t) amounted to 48900 ng·h/mL, the clearance is 1.7 mL/min/kg and the half-life was 3.38 h. In data set [3] (po, 10 mg/kg), the area under the curve AUC(0-inf) was 14200 ng·h/mL, the AUC(0-t) was 13500 ng·h/mL, the Cmax was 1490 ng/mL and the Tmax worked out at 2 h. In data set [3] (po, 10 mg/kg), this compound showed a bioavailability of 13.8% and a half-life of 6.77 h. Besides, the IC50 in data set [2] is under 0.1 nM.

`COc1cc2ncnc(Oc3ccc(NC(=O)c4c5n(n(-c6cc(F)ccc6F)c4=O)CCCC5)c(F)c3)c2cc1OC` [Compound 32]: the IC50 in data set [1] was determined as 37 ± 1.4 nM. As for `COc1cc2nccc(Oc3ccc(NC(=O)c4c5n(n(-c6ccc(F)cc6Cl)c4=O)CCCC5)cc3)c2cc1OC` [Compound 63], the IC50 in data set [2] was under 0.2 nM; in data set [1], < 10 nM and 2.3 nM. For the compound `COc1cc2ncnc(Oc3ccc(NC(=O)c4c5n(n(-c6ccccc6)c4=O)CCCC5)cc3F)c2cc1OC` [Compound 16], the IC50 in data set [2] is under 0.1 nM. For the compound `COc1cc2nccc(Oc3ccc(NC(=O)c4c5n(n(-c6ccccc6)c4=O)CCCC5)cc3)c2cc1OC` [Compound 56], the IC50 came to 1 ± 0.2 nM in data set [2] and 4 ± 0.4 nM in data set [1]. For the compound `COc1cc2ncnc(Oc3ccc(NC(=O)c4c5n(n(-c6cc(F)ccc6F)c4=O)CCCC5)c4ccccc34)c2cc1OC` [Compound 55], the inhibition at 0.1 µM in data set [1] came to 50.4%. Consider `COc1cc2ncnc(Oc3ccc(NC(=O)c4c5n(n(-c6ccccc6)c4=O)CCCC5)nc3)c2cc1OC` [Compound 51], for which the half-inhibitory concentration (IC50) in data set [2] was 3.3 ± 1.4 nM; in data set [1], 16.8 ± 3.5 nM. As for `COc1cc2ncnc(Oc3ccc(NC(=O)c4c5n(n(-c6ccc(F)cc6)c4=O)CCCC5)cc3Cl)c2cc1OC` [Compound 35], in data set [1], the IC50 stood at 19.6 ± 1.9 nM.

As to `COc1cc2ncnc(Oc3ccc(NC(=O)c4c5n(n(-c6ccccc6)c4=O)CCCC5)c(F)c3)c2cc1OC` [Compound 29], the IC50 in data set [2] came out at 2.3 ± 0.4 nM; in data set [1], 10 ± 1.4 nM. Take `O=C(Nc1ccc(Oc2ccn3nccc3n2)cc1)c1c2n(n(-c3ccccc3)c1=O)CCCC2` [Compound 13]: the inhibition at 0.1 µM in data set [1] was -18.9%. In the case of `COc1cc2ncnc(Oc3ccc(NC(=O)c4c5n(n(-c6ccccc6C)c4=O)CCCC5)cc3F)c2cc1OC` [Compound 22], the IC50 in data set [2] stood at 7.6 ± 4.1 nM; in data set [1], 15.7 ± 1.7 nM.
